From patent publication US20200390902A1, “Antibody-Drug Conjugates Targeted at Human Aspartyl-(Asparaginyl)-B-Hydroxylase (HAAH)” (Panacea Pharmaceuticals, Inc., priority 2017, published 2020)
Entries after “also recorded” stand apart in the source; their conditions may differ. Read-outs that look alike come from different tables or passages of the source.

What was measured:
MIA-PaCa-2 ASPH cells = assay: MTS cytotoxicity assay, MIA-PaCa-2 ASPH; type: cell-based, human; conditions: 10-50 nM, 48 hours
Experimental: The in vitro specificity of SNS622-MC-DM1 was also examined using the human pancreas cell line MIA-PaCa-2 ASPH. This cell line has a high level expression of ASPH. MIA-PaCa-2 cells were seeded at a density of 2,000 cells/well and cultured in high-glucose (25 mM D-glucose) Dulbecco's Modified Eagle's Medium (DMEM) with 10% FBS at 37° C. in a humidified atmosphere containing 5% CO2. The cells were treated with 10 nM IgG1-MC-DM1, 20 nM IgG1-MC-DM1, 50 nM IgG1-MC-DM1, 10 nM SNS622-MC-DM1, 20 nM SNS622-MC-DM1, or 50 nM SNS622-MC-DM1 for 48 hours. IgG1-MC-DM1 is a control ADC obtained from Goodwin Biotechnology, having catalog No. DAGIC1194, The cytotoxicity of the ADCs was measured using an MTS assay kit (Promega, Catalog No, G3582). After treatment for 1 hour with the MTS solution, absorbance was measured using a microplate reader at a 490 nm wavelength, with a reference at 690 nm.

H460 cells = assay: MTS cell viability assay, H460; type: cell-based, human
Experimental: (§1) Human H460 cells were obtained from the American Type Culture Collection (ATCC; Manassas, Va., U.S.A.). The H460 cells were seeded at a density of 5,000 cells/well in 96-well plates and cultured in HG-DMEM (ThermoFisher Scientific, Waltham. Mass., U.S.A.; Catalog No. 11965-092) supplemented with 20 mM HEPES, 4 mM L-glutamine, 1 mM sodium pyruvate, 1× non-essential amino acids, 50 μg/ml gentamicin, and 10% fetal bovine serum (FBS)). Human MOLM-14 cells were obtained from Dr. Ashkan Emadi at University of Maryland (Baltimore. Md., U.S.A.). The MOLM-14 cells were seeded at a density of 5000 cells/well in 96-well plates and cultured in RPMI 1640 with 20% heat-inactivated FBS. The H460 and MOLM-14 cells were treated with naked antibodies or ADCs for 24 hours, starting at the time of cell seeding. By the end of experiment, the cell viability for both cell lines was determined quantitatively using CELL TITER 96 AQUOUS ONE SOLUTION cell proliferation assay, a colorimetric method for determining the number of viable cells (MTS; Promega, Madison. Wis., U.S.A.; Catalog No. G3582).
FIG. 6 depicts the effects of linker and payload on cytotoxicity to cancer cell H460. […] The Log of the antibody concentration in nM is shown on the X axis.
The bioactivities of these SNS622 ADCs were examined using H460 cells. The cells were treated for 48 hours with these SNS622-MC-DM1s, or with SNS622 as control. Cell viability was evaluated at the end of the experiment using an MTS assay.
SNS622-MC-vc-PAB-DM1 and SNS622-MC-MMAE were also synthesized under different initial DAR ratios of 2.5:1, 5:1 and 10:1 at fixed pH8. The 460 cells were treated for 72 hours with ADCs SNS622-MC-vc-PAB-DM1 at with OAR 2.5:1; 5:1; and 10:1, or SNS622-MC-MMAE at with DAR 2.5:1; 5:1; and 10:1. The cell viability and cell death were separately quantified with […] and lactate dehydrogenase (LDH) release assays. FIG. 8A depicts a graph of the MTA quantification results expressed as percentage of untreated control. FIG. 8B depicts a graph of the LDH assay results expressed as percentage of 512 nM DM1-elicited maximal LDH release. The Log of the antibody concentration in nM is shown on the X axis.

[1] = tested on: metastatic nodules in the lungs (PDAC PDx); assay: PDx model of PDAC, lung metastasis; type: in vivo, mouse; conditions: 1.9 mg/kg, after 6 weeks of administration
Description: Pancreatic ductular adenocarcinoma (PDAC) is a highly lethal malignancy with limited treatment options. HAAH is a cell surface protein that is highly expressed in […] of PDACs. The specificity of SNS622-MC-DM1 was next examined in the patient-derived xenograft (PDx) mouse model PDAC. The patient-derived xenograft (PDx) murine model was established by using surgically resected PDAC (from Rhode Island Hospital, Providence, R.I., U.S.A.). Five to six-week-old female Nod Scid Gamma (NSG) mice were employed. […] Body weight and tumor size were measured twice a week and tumor volume was calculated using the modified ellipsoid formula (0.5×length×width^2). To determine the effect of SNS622-MC-DM1 on lung metastasis, all lung tissues were immersed in Bouin's fixative solution (Sigma-Aldrich, St. Louis, Mo., U.S.A.; catalog No, HT10132) and metastatic nodules on the surface of the lungs were counted. […]
This phenotype was maintained in the PDx model of NSG mouse. […] In this context, dose and period of administration of PAN-622 or SNS622-MC-DM1 for treatment of NSG mice was reduced to 1.9 mg/kg and the development and growth of metastatic nodules in the lungs after the treatment was assessed After 6 weeks of administration, the number of macroscopic metastatic nodules on the lung surface was determined.

MOLM-14 cells = assay: MTS cell viability assay, MOLM-14; type: cell-based, human; conditions: MOLM-14, 24 hours
Experimental: as §1, with “The H460 cells were seeded at a density of 5,000 cells/well in 96-well plates and cultured in HG-DMEM (ThermoFisher Scientific, Waltham. Mass., U.S.A.; Catalog No. 11965-092) supplemented with 20 mM HEPES, 4 mM L-glutamine, 1 mM sodium pyruvate, 1× non-essential amino acids, 50 μg/ml gentamicin, and 10% fetal bovine serum (FBS)).” left out

## SNS622-MC-DM1: SNS622 anti-HAAH monoclonal antibody conjugated to mertansine (DM1) by the non-cleavable linker maleimidocaproyl (MC)
MIA-PaCa-2 ASPH cells
  Reduction of relative absorbance (MTS): about 16%
H460 cells; H460, 24 hours
  Effect on H460 cell viability / growth (MTS): decreased the H460 cell viability; also recorded: inhibit in vitro cell growth of both H460 and MOLM-14
H460 cells; H460, 24 hours, read-out: EC50, killing of H460 cells (MTS)
  EC50: ~15 nM
H460 cells; H460, 72 hours, reaction DAR 10:1, read-out: IC50 of MTS
  IC50: 64 nM
H460 cells; stated for both cancer cell lines (H460 and MOLM-14), read-out: IC50, suppressing cell growth
  IC50: 15 nM
[1]
  Mean number of nodules per animal: 3.25
  Total number of metastatic nodules in group: approximately 35
MOLM-14 cells
  Effect on MOLM-14 cell viability / growth (MTS): inhibit in vitro cell growth of both H460 and MOLM-14; also recorded: greatest suppression in the growth of MOLM-14 cells
